US8357700B2, “2,3-disubstituted piperidine orexin receptor antagonists” (Merck Sharp & Dohme Corp., priority 2008, dated 2013)

Key:
orexin-1 receptor (OX1R) = molecular target: T1, orexin-1 receptor (OX1R) (UniProt O43613); experiment: radioligand binding assay, membranes from CHO cells expressing OX1 receptor; settings: CHO cell membranes
T1 sequence (O43613 1-425): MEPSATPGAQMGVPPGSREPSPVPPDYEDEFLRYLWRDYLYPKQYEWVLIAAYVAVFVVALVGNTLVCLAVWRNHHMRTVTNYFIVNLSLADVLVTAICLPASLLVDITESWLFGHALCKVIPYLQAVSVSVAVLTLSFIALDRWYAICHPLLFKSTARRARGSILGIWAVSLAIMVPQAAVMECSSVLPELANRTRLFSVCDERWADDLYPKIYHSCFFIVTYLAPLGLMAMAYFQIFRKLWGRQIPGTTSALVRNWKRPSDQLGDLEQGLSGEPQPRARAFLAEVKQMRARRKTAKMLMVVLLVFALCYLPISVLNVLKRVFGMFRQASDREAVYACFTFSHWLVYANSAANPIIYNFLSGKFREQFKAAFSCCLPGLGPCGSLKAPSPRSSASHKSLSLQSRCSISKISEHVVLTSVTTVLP
Protocol: (§1) The utility of the compounds in accordance with the present invention as orexin receptor OX1R and/or OX2R antagonists may be readily determined without undue experimentation by methodology well known in the art, including the “FLIPR Ca^2+ Flux Assay” (Okumura et al., Biochem. Biophys. Res. Comm. 280:976-981, 2001). In a typical experiment the OX1 and OX2 receptor antagonistic activity of the compounds of the present invention was determined in accordance with the following experimental method. For intracellular calcium measurements, Chinese hamster ovary (CHO) cells expressing the rat OX1 receptor or the human OX2 receptor, are grown in Iscove's modified DMEM containing 2 mM L-glutamine, […], 1% hypoxanthine-thymidine supplement, 100 U/ml penicillin, 100 ug/ml streptomycin and 10% heat-inactivated fetal calf serum (FCS). The cells are seeded at 20,000 cells/well into Becton-Dickinson black 384-well clear bottom sterile plates coated with poly-D-lysine. All reagents were from GIBCO-Invitrogen Corp. The seeded plates are incubated overnight at 37° C. and 5% CO2. Ala-6,12 human orexin-A as the agonist is prepared as a 1 mM stock solution in 1% bovine serum albumin (BSA) and diluted in assay buffer (HBSS containing 20 mM HEPES, 0.1% BSA and 2.5 mM probenecid, pH7.4) for use in the assay at a final concentration of 70 pM. Test compounds are prepared as 10 mM stock solution in DMSO, then diluted in 384-well plates, first in DMSO, then assay buffer. On the day of the assay, cells are washed 3 times with 100 ul assay buffer and then incubated for 60 min (37° C., 5% CO2) in 60 ul assay buffer containing 1 uM Fluo-4AM ester, 0.02% pluronic acid, and 1% BSA. The dye loading solution is then aspirated and cells are washed 3 times with 100 ul assay buffer. 30 ul of that same buffer is left in each well. Within the Fluorescent Imaging Plate Reader (FLIPR, Molecular Devices), test compounds are added to the plate in a volume of 25 ul, incubated for 5 min and finally 25 ul of agonist is added. Fluorescence is measured for each well at 1 second intervals for 5 minutes and the height of each fluorescence peak is compared to the height of the fluorescence peak induced by 70 pM Ala-6,12 orexin-A with buffer in place of antagonist. For each antagonist, IC50 value (the concentration of compound needed to inhibit 50% of the agonist response) is determined. Alternatively, compound potency can be assessed by a radioligand binding assay (described in Bergman et. al. Bioorg. Med. Chem. Lett. 2008, 18, 1425-1430) in which the inhibition constant (Ki) is determined in membranes prepared from CHO cells expressing either the orexin-1 (OX1) or orexin-2 (OX2) receptor. The intrinsic orexin receptor antagonist activity of a compound which may be used in the present invention may be determined by these assays.

orexin-2 receptor (OX2R) = molecular target: T2, orexin-2 receptor (OX2R) (Homo sapiens, UniProt O43614); experiment: radioligand binding assay, membranes from CHO cells expressing OX2 receptor; settings: CHO cell membranes
T2 construct: expressed in transfected cells; host or cells: CHO cells (membranes)
T2 sequence (O43614 1-444): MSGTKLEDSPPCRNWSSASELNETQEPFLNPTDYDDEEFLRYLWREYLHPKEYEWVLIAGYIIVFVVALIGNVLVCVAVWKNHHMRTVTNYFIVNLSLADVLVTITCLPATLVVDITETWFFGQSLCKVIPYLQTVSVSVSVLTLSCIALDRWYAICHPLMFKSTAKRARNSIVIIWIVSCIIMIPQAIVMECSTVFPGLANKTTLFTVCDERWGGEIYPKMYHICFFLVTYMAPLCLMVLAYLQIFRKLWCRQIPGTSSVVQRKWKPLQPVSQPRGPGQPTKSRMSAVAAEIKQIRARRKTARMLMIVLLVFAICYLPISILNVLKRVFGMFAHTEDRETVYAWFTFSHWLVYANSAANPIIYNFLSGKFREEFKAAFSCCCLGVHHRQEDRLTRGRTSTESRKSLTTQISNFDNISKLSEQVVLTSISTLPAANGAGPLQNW
Protocol: as §1

| SMILES | Ki (orexin-1 receptor (OX1R)) [nM] | Ki (orexin-2 receptor (OX2R)) [nM] |
| --- | --- | --- |
| Cc1ccc(-n2nccn2)c(C(=O)N2CCC[C@@H](COc3ccc(Br)cn3)[C@@H]2C)c1 (stereo in doubt) [A-7, 5-bromo-2-({2-methyl-1-[5-methyl-2-(2H-1,2,3-triazol-2-yl)benzoyl]piperidin-3-yl}methoxy)pyridine] | 1.1 | 6.4 |
| Cc1ccc(-n2nccn2)c(C(=O)N2CCC[C@@H](COc3ccccn3)[C@@H]2C)c1 [A-6] | 1 | 39 |
| Cc1ccc(-n2nccn2)c(C(=O)N2CCC[C@@H](COc3nccc4ccccc34)[C@@H]2C)c1 (stereo in doubt) [A-8, 1-({2-methyl-1-[5-methyl-2-(2H-1,2,3-triazol-2-yl)benzoyl]piperidin-3-yl}methoxy)isoquinoline] | 0.5 | 2.1 |

The remaining lines, values ahead:

| Ki (orexin-1 receptor (OX1R)) [nM] | Ki (orexin-2 receptor (OX2R)) [nM] | SMILES |
| --- | --- | --- |
| 2.7 | 7.5 | Cc1ccc(-n2nccn2)c(C(=O)N2CCC[C@@H](COc3cccc(Br)n3)[C@@H]2C)c1 (stereo in doubt) [A-9, 2-bromo-6-({2-methyl-1-[5-methyl-2-(2H-1,2,3-triazol-2-yl)benzoyl]piperidin-3-yl}methoxy)pyridine] |
| 0.6 | 2.6 | Cc1ccc(-n2nccn2)c(C(=O)N2CCC[C@@H](COc3ccnc4ccccc34)[C@@H]2C)c1 (stereo in doubt) [A-10, 4-({2-methyl-1-[5-methyl-2-(2H-1,2,3-triazol-2-yl)benzoyl]piperidin-3-yl}methoxy)quinoline] |
